Data reported in ChEMBL document CHEMBL1145519, “Exploitation of structural and regulatory diversity in glutamate racemases” (Nature, 2007).
Values after ≈ are worked out from the molar mass of the structure shown.

Columns and labels:
[1] = biological target: T1, Glutamate racemase (Helicobacter pylori (strain ATCC 700392 / 26695) (Campylobacterpylori), UniProt P56068); assay: Binding affinity to Helicobacter pylori MurI by protein fluorescence binding assay
T1 sequence (P56068 whole entry): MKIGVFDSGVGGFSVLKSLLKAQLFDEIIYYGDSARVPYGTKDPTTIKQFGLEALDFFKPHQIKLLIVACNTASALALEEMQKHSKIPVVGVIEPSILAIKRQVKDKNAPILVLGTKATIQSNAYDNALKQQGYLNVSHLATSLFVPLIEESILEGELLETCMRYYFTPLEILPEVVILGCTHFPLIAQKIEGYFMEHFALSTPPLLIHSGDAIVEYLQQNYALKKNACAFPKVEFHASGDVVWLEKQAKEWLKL

[2] = Inhibition of MurI in Escherichia coli
[3] = biological target: T1, Glutamate racemase; assay: Binding affinity to Helicobacter pylori MurI by isothermal titration calorimetry
[4] = test system: Escherichia coli; assay: Antimicrobial activity against Escherichia coli; type: functional
[5] = biological target: T2, Glutamate racemase (Streptococcus pneumoniae serotype 4 (strain ATCC BAA-334 / TIGR4), UniProt P63640); assay: Inhibition of MurI in Streptococcus pneumoniae
T2 sequence (P63640 whole entry): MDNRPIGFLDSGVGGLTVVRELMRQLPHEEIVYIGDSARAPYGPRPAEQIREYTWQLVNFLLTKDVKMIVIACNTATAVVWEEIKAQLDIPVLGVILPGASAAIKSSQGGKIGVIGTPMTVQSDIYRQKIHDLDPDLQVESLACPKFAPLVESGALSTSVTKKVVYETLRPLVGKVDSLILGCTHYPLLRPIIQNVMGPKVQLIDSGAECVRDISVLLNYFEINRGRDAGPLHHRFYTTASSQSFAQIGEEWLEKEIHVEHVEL

[6] = test system: Staphylococcus aureus; assay: Antimicrobial activity against Staphylococcus aureus; type: functional
[7] = Inhibition of MurI in Staphylococcus aureus
[8] = biological target: T1, Glutamate racemase; assay: Inhibition of Helicobacter pylori glutamate racemase
[9] = test system: Helicobacter pylori; assay: Antimicrobial activity against Helicobacter pylori; type: functional
[10] = test system: Streptococcus pneumoniae; assay: Antimicrobial activity against Streptococcus pneumoniae; type: functional
[11] = biological target: Glutamate racemase (Helicobacter pylori (strain ATCC 700392 / 26695) (Campylobacterpylori), UniProt P56068, A75T); assay: Inhibition of Helicobacter pylori MurI A75T mutant
Chain of Glutamate racemase (Helicobacter pylori (strain ATCC 700392 / 26695) (Campylobacterpylori), UniProt P56068, A75T) (P56068 whole entry A75T): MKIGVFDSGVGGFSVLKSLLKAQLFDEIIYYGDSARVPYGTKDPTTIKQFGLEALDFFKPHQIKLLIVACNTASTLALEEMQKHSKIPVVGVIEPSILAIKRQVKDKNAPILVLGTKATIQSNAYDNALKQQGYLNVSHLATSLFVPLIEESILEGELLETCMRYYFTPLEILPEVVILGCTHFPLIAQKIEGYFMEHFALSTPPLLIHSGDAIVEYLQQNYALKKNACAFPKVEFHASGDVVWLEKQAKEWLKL

[12] = biological target: Glutamate racemase (Helicobacter pylori (strain ATCC 700392 / 26695) (Campylobacterpylori), UniProt P56068, E151K); assay: Inhibition of Helicobacter pylori MurI E151K mutant
Chain of Glutamate racemase (Helicobacter pylori (strain ATCC 700392 / 26695) (Campylobacterpylori), UniProt P56068, E151K) (P56068 whole entry E151K): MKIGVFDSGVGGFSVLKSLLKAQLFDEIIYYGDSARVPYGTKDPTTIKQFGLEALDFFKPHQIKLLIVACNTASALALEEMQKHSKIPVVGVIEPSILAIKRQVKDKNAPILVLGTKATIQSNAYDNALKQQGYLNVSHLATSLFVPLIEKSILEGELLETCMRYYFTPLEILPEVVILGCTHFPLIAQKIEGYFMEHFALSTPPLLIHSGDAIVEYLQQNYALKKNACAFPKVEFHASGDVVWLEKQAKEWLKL

| Kd [1] [nM] | IC50 [2] [µM] | Kd [3] [nM] | MIC [4] [µg/mL] | IC50 [5] [µM] | MIC [6] [µg/mL] | IC50 [7] [µM] | IC50 [8] [nM] | MIC [9] [µg/mL] | MIC [10] [µg/mL] | Compound | Ki [11] [µM] | Ki [12] [mM] | Ki [8] [µM] |
| --- | --- | --- | --- | --- | --- | --- | --- | --- | --- | --- | --- | --- | --- |
| 3900 | > 400 | 2900 | > 64 | > 400 | > 64 | > 400 | 1400 | 4 (≈ 9.1 µM) | > 64 | CC(C)Cn1c(=O)n(C)c(=O)c2c(-c3ccncc3)n(Cc3cccc4ccccc34)nc21 |  |  |  |
| 25 | > 400 |  | > 64 | > 400 | > 64 | > 400 | 25 | 0.5 (≈ 1 µM) | > 64 | Cn1cc(C#N)cc1-c1c2c(=O)n(C)c(=O)n(CC3CC3)c2nn1Cc1ccnc2ccc(Cl)cc12 |  |  |  |
|  |  |  |  |  |  |  |  |  |  | N[C@H](CCC(=O)O)C(=O)O [D-GLUTAMATE] | 661 | > 100 | 5.8 |
